Here are results for 16 molecules from patent US20230069963A1, “PYRAZOLO[1,5-A]PYRIMIDINE MACROCYCLIC COMPOUND” (priority 2018, published 2023).

Where a name gives a salt, the structure may show the parent alone.

For one test, the system named is RSV ATCC VR-1540 (A2). Nature of the test: microbe, parasite or virus in culture. The format is cell-based. The settings on record: Hep2 cells, incubated for 4 days, CPE detected with XTT assay (absorbance 450 nm); read-out: EC50 (nmol/L) against RSV A2 strain.
On to “(23aS)-18-(azetidin-1-yl)-8-fluoro-16-methyl-1,3,4,11,12,13,14,15,16,23a-decahydro-2H,6H-23,20-(metheno)pyrido[1,2-b]pyrimido[1,6-f][2,5,6,8,11]benzopentaazacyclopentadecin-6-one [Example 148]”, for which the EC50 is 28.9 nmol/L.

The same test, now with this note: human respiratory syncytial virus, HEp-2, 96 h; Hep2 cells, incubated for 4 days, CPE detected with XTT assay (absorbance 450 nm); read-out: EC50 (nmol/L) against RSV A2 strain.
For the molecule `CCN1CCN(C)c2cc(N3CC(N)C3)nc3cc(nn23)[C@@H]2CCCCN2C(=O)c2cc(F)ccc2OCC1=O` [Example 9, (18aS)-13-(3-aminoazetidin-1-yl)-8-ethyl-2-fluoro-11-methyl-8,9,10,11,19,20,21,22-octahydro-18aH,24H-18,15-(metheno)pyrido[2,1-l]pyrimido[6,1-h][1,4,7,9,10,13]benzoxapentaazacyclohexadecine-7,24(6H)-dione], the EC50 came out at 6.34 nmol/L.
On the same count and under the same terms, then `Cc1ccc2c(c1)C(=O)N1CCCC[C@H]1c1cc3nc(NCCN)cc(n3n1)N(C)CCN(S(C)(=O)=O)CCO2` [Example 182, (18aS)-13-[(2-aminoethyl)amino]-8-(methanesulfonyl)-2,11-dimethyl-6,7,8,9,10,11,19,20,21,22-decahydro-18aH,24H-18,15-(metheno)pyrido[2,1-l]pyrimido[6,1-h][1,4,7,9,10,13]benzoxapentaazacyclohexadecin-24-one hydrochloride], with 14.2 nmol/L; and `Cc1ccc2c(c1)C(=O)N1CCCC[C@H]1c1cc3nc(C4CC4)cc(n3n1)N(C)CCNC(=O)CO2` [Example 102, (18aS)-13-cyclopropyl-2,11-dimethyl-8,9,10,11,19,20,21,22-octahydro-18aH,24H-18,15-(metheno)pyrido[2,1-l]pyrimido[6,1-h][1,4,7,9,10,13]benzoxapentaazacyclohexadecine-7,24(6H)-dione], with 0.239 nmol/L; and `Cc1nnc2n1CCN(C)c1cc(N3CCC3)nc3cc(nn13)[C@@H]1CCCCN1C(=O)c1cc(Cl)ccc1OC2` [Example 329, (20aS)-15-(azetidin-1-yl)-2-chloro-9,13-dimethyl-12,13,21,22,23,24-hexahydro-6H,11H,20aH,26H-20,17-(metheno)pyrido[2,1-l]pyrimido[6,1-h][1,2,4]triazolo[3,4-c][1,4,7,9,10,13]benzoxapentaazacyclohexadecin-26-one], with 1.61 nmol/L.
Same read-out and setting: the same measure for `CN1CCNC(=O)COc2ccc(F)cc2C(=O)N2CCCC[C@H]2c2cc3nc(N4CC(N)C4)cc1n3n2` [Example 4, (18aS)-13-(3-aminoazetidin-1-yl)-2-fluoro-11-methyl-8,9,10,11,19,20,21,22-octahydro-18aH,24H-18,15-(metheno)pyrido[2,1-l]pyrimido[6,1-h][1,4,7,9,10,13]benzoxapentaazacyclohexadecine-7,24(6H)-dione]: 2.71 nmol/L; for `CN1CCNC(=O)COc2ccc(I)cc2C(=O)N2CCCC[C@H]2c2cc3nc(C4CC4)cc1n3n2` [Example 97, (18aS)-13-cyclopropyl-2-iodo-1 l-methyl-8,9,10,11,19,20,21,22-octahydro-18aH,24H-18,15-(metheno)pyrido[2,1l-]pyrimido[6,1-h][1,4,7,9,10,13]benzoxapentaazacyclohexadecine-7,24(6H)-dione]: 0.76 nmol/L; for `Cc1c(N2CCC2)nc2cc3nn2c1NCCCCOc1ccc(Cl)cc1C(=O)N1CCCC[C@@H]31` [Example 284, (23aS)-18-(azetidin-1-yl)-8-chloro-17-methyl-1,3,4,13,14,15,16,23a-octahydro-2H,6H,12H-23,20-(metheno)pyrido[2,1-k]pyrimido[6,1-g][1,6,8,9,12]benzoxatetraazacyclopentadecin-6-one]: 22.2 nmol/L.
On the same count and under the same terms, the same measure for `CN1CC(C)(C)NC(=O)COc2ccc(F)cc2C(=O)N2CCCC[C@H]2c2cc3nc(N4CC(N)C4)cc1n3n2` [Example 11, (18aS)-13-(3-aminoazetidin-1-yl)-2-fluoro-9,9,11-trimethyl-8,9,10,11,19,20,21,22-octahydro-18aH,24H-18,15-(metheno)pyrido[2,1-l]pyrimido[6,1-h][1,4,7,9,10,13]benzoxapentaazacyclohexadecine-7,24(6H)-dione]: 1.56 nmol/L.
Take `CN1CCCCOCC(C)(c2cccnc2)C(=O)N2CCCCC2c2cc3nc(N4CC(N)C4)cc1n3n2` [Example 380, (18aS)-3-(3-aminoazetidin-1-yl)-5,12-dimethyl-12-(pyridin-3-yl)-6,7,8,9,11,12,16,17,18,18a-decahydro-5H,13H,15H-19,1-(metheno)pyrido[,2-e]pyrimido[1,6-i][1,5,8,9,11]oxatetraazacyclopentadecin-13-one]: the EC50 came out at 8.77 nmol/L.
Still for that read-out and setting: the same measure for `CN1CCCCCc2ccc(F)cc2C(=O)N2CCCC[C@H]2c2cc3nc(N4CCC4)cc1n3n2` [Example 279, (23aS)-18-(azetidin-1-yl)-8-fluoro-16-methyl-1,3,4,11,12,13,14,15,16,23a-decahydro-2H,6H-23,20-(metheno)pyrido[1,2-b]pyrimido[1,6-f][2,5,6,8]benzotetraazacyclopentadecin-6-one]: 14.5 nmol/L.
As for `CCC1c2cc3nc(N4CC[C@H](N)C4)cc(n3n2)N(C)CCCCOc2ccccc2C(=O)N1C` (stereo partly drawn) [Example 213, (17S)-3-[(3S)-3-aminopyrrolidin-1-yl]-17-ethyl-5,16-dimethyl-6,7,8,9,16,17-hexahydro-5H,15H-18,1-(metheno)pyrimido[6,1-g][1,6,8,9,12]benzoxatetraazacyclopentadecin-S5-one], the EC50 turned out to be 7.81 nmol/L.
The same measure, in the same setting: then `CN1CCNCCOc2ccc(F)cc2C(=O)N2CCCC[C@H]2c2cc3nc(N4CCC4)c(F)c1n3n2` [Example 198, (18aS)-13-(azetidin-1-yl)-2,12-difluoro-11-methyl-6,7,8,9,10,11,19,20,21,22-decahydro-18aH,24H-18,15-(metheno)pyrido[2,1-l]pyrimido[6,1-h][1,4,7,9,10,13]benzoxapentaazacyclohexadecin-24-one], with 2.82 nmol/L; and `CN1CCOCCOc2ccc(Cl)cc2C(=O)N2CCCCC2c2cc3nc(N4CCC(N)C4)cc1n3n2` [Example 297, (18aS)-13-[(3S)-3-aminopyrrolidin-1-yl]-2-chloro-11-methyl-6,7,10,11,19,20,21,22-octahydro-9H,18aH,24H-18,15-(metheno)pyrido[2,1-l]pyrimido[6,1-h][1,4,7,9,10,13]benzodioxatetraazacyclohexadecin-24-one], with 8.74 nmol/L.
Still for that read-out and setting: the same measure for `Cc1c(CCCCN)nc2cc3nn2c1N(C)CCNC(=O)COc1ccc(Cl)cc1C(=O)N1CCCC[C@@H]31` [Example 78, (18aS)-13-(4-aminobutyl)-2-chloro-11,12-dimethyl-8,9,10,11,19,20,21,22-octahydro-18aH,24H-18,15-(metheno)pyrido[2,1-l]pyrimido[6,1-h][1,4,7,9,10,13]benzoxapentaazacyclohexadecine-7,24(6H)-dione]: 1.7 nmol/L; for `CC[C@H]1c2cc3nc(N4CC[C@H](N)C4)cc(n3n2)N(C)CCCCN(C)c2ccc(C)cc2C(=O)N1C` [Example 218, (17S)-3-[(3S)-3-aminopyrrolidin-1-yl]-17-ethyl-5,10,13,16-tetramethyl-5,6,7,8,9,10,16,17-octahydro-15H-18,1-(metheno)pyrimido[6,1-g][1,6,8,9,12]benzopentaazacyclopentadecin-15-one]: 9.8 nmol/L.
